Assay results published in patent US10670605B2, “Cysteine reactive probes and uses thereof” (The Scripps Research Institute, priority 2015, dated 2020).
Counter-ions that a name gives are not always drawn.

What was measured:
[1] = target: O00541_C272 (Homo sapiens, UniProt O00541); test: Competitive isoTOP-ABPP, cell lysates; type: binding; details: 500 μm, in-vitro_ramos
[2] = target: T1, PKCθ-CD28 interaction (Mus musculus, UniProt Q02111); test: PKCθ immunoprecipitation with CD28 and immunoblot; type: cell-based; details: 50 μM, mouse T cells
T1 construct: endogenous in cells; host or cells: peripheral CD4+ T cells from C57BL/6 mice
T1 sequence (Q02111 whole entry): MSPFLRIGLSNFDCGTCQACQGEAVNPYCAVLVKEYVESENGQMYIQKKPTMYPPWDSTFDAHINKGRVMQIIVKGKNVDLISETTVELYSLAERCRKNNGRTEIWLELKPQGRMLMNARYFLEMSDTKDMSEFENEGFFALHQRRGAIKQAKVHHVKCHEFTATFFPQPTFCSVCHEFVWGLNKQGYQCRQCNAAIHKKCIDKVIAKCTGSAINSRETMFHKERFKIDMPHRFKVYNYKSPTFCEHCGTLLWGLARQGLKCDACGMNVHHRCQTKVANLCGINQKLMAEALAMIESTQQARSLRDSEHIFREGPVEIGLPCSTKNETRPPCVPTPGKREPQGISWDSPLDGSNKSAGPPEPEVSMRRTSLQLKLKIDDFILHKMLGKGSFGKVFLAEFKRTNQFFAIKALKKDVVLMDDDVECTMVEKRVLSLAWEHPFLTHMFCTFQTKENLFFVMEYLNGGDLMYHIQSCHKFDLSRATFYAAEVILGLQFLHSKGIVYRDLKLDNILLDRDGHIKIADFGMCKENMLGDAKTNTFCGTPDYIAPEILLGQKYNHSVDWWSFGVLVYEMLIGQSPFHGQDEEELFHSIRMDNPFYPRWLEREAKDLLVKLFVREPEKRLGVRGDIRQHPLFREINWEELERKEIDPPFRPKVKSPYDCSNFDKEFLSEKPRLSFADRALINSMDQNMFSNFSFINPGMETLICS
Excerpt: FIG. 32A-FIG. 32G exemplify DMF-sensitive C14/C17 residues in PKCθ are important for CD28 interactions and T cell activation. FIG. 32A illustrates representative MS1 profiles for DMF-sensitive (C14/C17) and -insensitive (C322) Cys residues in PKCθ. FIG. 32B exemplifies sequence conservation analysis of human and mouse PKCθ, human PKCδ, and human PKCε (SEQ ID NOS 865-868, respectively, in order of appearance). Shown in red are C14 and C17. FIG. 32C illustrates location of DMF-sensitive C14 and C17 residues in the C2 domain of PKCθ (PDB accession number 2ENJ). […] Immunoprecipitations (IPs) were performed in the cell lysates with anti-CD28 or control IgG antibodies and IPs blotted for CD28 or PKCθ. FIG. 32E illustrates Co-IP of WT PKCθ and the C14S/C17S (2CS) PKCθ mutant with CD28. PKCθ(−/−) T cells were reconstituted with empty vector (EV), WT PKCθ, or the 2CS PKCθ mutant. FIG. 32F and FIG. 32 G illustrate PKCθ(−/−) T cells reconstituted with WT or 2CS PKCθ were assayed for activation potential by measuring CD25 expression (FIG. 32F) and IL-2 (FIG. 32G). For FIG. 32E-FIG. 32G, PKCθ(−/−) T cell cultures were pre-activated with plate-coated anti-CD3+anti-CD28 for 24 h before retroviral transduction with empty vector, WT PKCθ, or the 2CS PKCθ mutant. […]

[3] = system: Nrf2(+/+) and (-/-) T cells; test: CD25 expression in Nrf2(+/+) and (-/-) T cells; type: cell-based, mouse; details: 24 h
Method: C57BL/6J and Nrf2^-/- mice (Stock No:017009; […]: Jackson Labs) were bred and maintained in a closed breeding facility at The Scripps Research Institute and were 6-8 weeks old when used in experiments. All mice were used in accordance with guidelines from the Institutional Animal Care and Use Committee of The Scripps Research Institute. Spleens were harvested from female mice, perfused with collagenase, and incubated at 37° C. with 5% CO2 for 30 min. After this time, the spleens were homogenized. Cells that passed through a 100 μm cell strainer were collected and washed with RPMI. T cells were isolated from the splenocytes using the EasySepTM Mouse T cell Isolation Kit (19851; […]) according to manufacturer's instructions. 96-well plates were coated with anti-CD3 (1:200; BioXcell) and anti-CD28 (1:500; 302933; BioLegend) in PBS (100 μL/well) overnight at 4° C. The plates were then washed twice with PBS and to each well was added 500,000 primary T cells in 100 μL of RPMI supplemented with 10% FBS, glutamine, and Pen-Strep. Cells were then treated with 100 μL of media containing compound at the indicated concentrations (final well volume of 200 μL). Cells were left at 37° C. in a 5% CO2 incubator for the indicated periods of time and harvested by centrifugation (500 g, 8 min, 4° C.), followed by washing with PBS. […] Data was then analyzed with FlowJo software (Treestar Inc.). […]

[4] = system: primary human T cells
Method: Cells were transferred to a round bottom 96-well plate (0720095; Fisher Scientific), harvested by centrifugation (500 g, 3 min, 4° C.), washed with PBS, and stained with LIVE/DEAD fixable cell stain (L23105; ThermoFisher) according to the manufacturer's instructions. Briefly, one vial of LIVE/DEAD stain was resuspended in 50 uL of DMSO and added to 20 mL of PBS. To each well of the 96-well plate was added 200 μL of the stain, and the cells were incubated on ice for 30 min in the dark. After this time, cells were pelleted and washed once with PBS, then stained for cell surface antigens.

[5] = target: RRAGC C377 (Q9HB90) (Homo sapiens, UniProt Q9HB90); test: Competitive isoTOP-ABPP in situ; type: cell-based; details: fragment 2 at 200 μM, MDA-MB-231 cells
Sequence of RRAGC C377 (Q9HB90) (Q9HB90 2-399 limits assumed): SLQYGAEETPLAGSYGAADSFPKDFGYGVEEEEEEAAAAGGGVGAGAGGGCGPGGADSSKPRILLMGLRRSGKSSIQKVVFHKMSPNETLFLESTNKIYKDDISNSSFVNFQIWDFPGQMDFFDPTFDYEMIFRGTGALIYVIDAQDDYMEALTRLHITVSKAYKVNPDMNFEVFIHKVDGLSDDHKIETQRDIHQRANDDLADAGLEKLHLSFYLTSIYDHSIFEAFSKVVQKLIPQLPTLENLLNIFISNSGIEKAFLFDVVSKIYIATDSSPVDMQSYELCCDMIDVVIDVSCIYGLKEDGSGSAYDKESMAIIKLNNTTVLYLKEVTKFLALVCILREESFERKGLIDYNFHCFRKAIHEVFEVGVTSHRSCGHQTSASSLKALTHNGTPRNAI
Sequence of RRAGC C377 (Q9HB90) (Q7L523 whole entry partner, the tested form may be a part): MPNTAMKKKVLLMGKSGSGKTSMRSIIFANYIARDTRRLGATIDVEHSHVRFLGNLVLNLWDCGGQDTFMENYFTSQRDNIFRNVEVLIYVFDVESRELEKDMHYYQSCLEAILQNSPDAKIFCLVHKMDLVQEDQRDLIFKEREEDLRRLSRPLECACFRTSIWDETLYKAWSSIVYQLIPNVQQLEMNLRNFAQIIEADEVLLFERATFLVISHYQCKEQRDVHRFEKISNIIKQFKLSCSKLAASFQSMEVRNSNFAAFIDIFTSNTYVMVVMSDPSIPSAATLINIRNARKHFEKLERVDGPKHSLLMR

[6] = target: THAP11 C48 (Q96EK4) (Homo sapiens, UniProt Q96EK4); test: Competitive isoTOP-ABPP in situ; type: cell-based; details: fragment 2 at 200 μM, MDA-MB-231 cells
Sequence of THAP11 C48 (Q96EK4) (Q96EK4 whole entry, the tested form may be a part): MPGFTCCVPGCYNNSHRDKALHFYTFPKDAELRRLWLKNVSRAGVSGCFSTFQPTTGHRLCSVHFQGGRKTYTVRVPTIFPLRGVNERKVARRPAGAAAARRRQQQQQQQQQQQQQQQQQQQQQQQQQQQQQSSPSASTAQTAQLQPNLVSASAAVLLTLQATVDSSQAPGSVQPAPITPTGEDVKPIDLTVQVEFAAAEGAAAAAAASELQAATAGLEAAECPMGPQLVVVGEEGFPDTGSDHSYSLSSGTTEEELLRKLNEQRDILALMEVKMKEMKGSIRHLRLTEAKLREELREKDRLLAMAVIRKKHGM

[7] = target: RNF214 C655 (Q8ND24) (Homo sapiens, UniProt Q8ND24); test: Competitive isoTOP-ABPP in situ; type: cell-based; details: fragment 2 at 200 μM, MDA-MB-231 cells
Sequence of RNF214 C655 (Q8ND24) (Q8ND24 whole entry, the tested form may be a part): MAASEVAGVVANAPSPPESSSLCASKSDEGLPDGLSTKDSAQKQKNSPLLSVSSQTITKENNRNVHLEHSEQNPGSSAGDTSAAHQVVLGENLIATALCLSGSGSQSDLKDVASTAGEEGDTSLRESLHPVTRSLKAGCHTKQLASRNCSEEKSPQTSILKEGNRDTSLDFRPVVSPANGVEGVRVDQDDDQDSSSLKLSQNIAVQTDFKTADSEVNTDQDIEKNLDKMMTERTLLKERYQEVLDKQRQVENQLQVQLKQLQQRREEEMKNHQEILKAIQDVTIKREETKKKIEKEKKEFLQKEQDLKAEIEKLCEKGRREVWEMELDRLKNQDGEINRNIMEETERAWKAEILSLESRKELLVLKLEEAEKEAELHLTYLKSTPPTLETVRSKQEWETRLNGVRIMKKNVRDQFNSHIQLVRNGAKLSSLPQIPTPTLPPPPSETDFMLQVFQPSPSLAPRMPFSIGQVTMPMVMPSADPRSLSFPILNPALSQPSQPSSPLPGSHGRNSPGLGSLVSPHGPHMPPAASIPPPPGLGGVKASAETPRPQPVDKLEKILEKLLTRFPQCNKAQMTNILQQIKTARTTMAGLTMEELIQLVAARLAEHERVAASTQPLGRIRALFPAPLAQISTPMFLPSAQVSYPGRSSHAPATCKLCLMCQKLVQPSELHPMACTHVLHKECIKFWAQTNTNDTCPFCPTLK

Sequence of O00541_C272 (O00541 whole entry, looked up): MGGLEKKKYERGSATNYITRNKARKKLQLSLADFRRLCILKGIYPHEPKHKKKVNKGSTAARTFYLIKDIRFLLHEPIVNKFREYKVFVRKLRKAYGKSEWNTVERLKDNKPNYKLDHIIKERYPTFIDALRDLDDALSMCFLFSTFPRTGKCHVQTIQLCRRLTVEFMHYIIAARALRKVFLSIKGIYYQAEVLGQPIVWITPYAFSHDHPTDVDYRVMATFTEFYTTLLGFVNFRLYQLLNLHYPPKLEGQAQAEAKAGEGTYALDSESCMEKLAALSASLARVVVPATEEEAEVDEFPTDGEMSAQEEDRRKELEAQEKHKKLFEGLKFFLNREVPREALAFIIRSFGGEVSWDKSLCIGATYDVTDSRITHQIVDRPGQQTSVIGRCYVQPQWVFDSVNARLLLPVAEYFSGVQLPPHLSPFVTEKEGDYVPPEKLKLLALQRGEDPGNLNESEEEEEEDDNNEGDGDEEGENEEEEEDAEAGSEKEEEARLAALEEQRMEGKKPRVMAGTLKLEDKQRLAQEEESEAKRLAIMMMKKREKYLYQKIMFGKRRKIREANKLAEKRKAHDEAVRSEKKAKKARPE

Q: For N#CC(=Cc1ccc(-c2ccccc2Cl)o1)C(N)=O [compound 42], which “isoTOP-ABPP reactivity profile ratio, O00541_C272” value [1] is on record?
A: 0.9

Q: How did the “interaction between PKCθ and CD28” value [2] turn out when COC(=O)/C=C/C(=O)OC [DMF, dimethyl fumarate] was run?
A: blocked

Q: What about the “sensitivity of activation of Nrf2(+/+) and (-/-) T cells” value [3] of the same compound?
A: similarly sensitive

Q: And the T cell viability [4]?
A: did not impair

Q: COc1ccc2c(c1)CCCN2C(=O)CCl [compound 2] was tested. Which “isoTOP-ABPP reactivity profile (ratio) 2_200 μM_in-situ_231” value [5] did it give?
A: 3.3

Q: What about the “isoTOP-ABPP reactivity profile (ratio) 2_200 μM_in-situ_231” value [6] of the same compound?
A: 7.9

Q: And the “isoTOP-ABPP reactivity profile (ratio) 2_200 μM_in-situ_231” value [7]?
A: 6.5
